The record followed here is patent EP0100158A2, “(3-pyridinyl)heteroalkarylalkanols, alkanoic acids and esters” (THE UPJOHN COMPANY, priority 1982, dated 1984).

The target in this test is T1, TXA2 synthetase (Homo sapiens, UniProt P24557).
T1 construct: generated by mixing prostaglandin H2 (PGH2) with human platelet microsomes (HPM); from tissue; host or cells: human platelet microsomes
T1 sequence (P24557 1-533): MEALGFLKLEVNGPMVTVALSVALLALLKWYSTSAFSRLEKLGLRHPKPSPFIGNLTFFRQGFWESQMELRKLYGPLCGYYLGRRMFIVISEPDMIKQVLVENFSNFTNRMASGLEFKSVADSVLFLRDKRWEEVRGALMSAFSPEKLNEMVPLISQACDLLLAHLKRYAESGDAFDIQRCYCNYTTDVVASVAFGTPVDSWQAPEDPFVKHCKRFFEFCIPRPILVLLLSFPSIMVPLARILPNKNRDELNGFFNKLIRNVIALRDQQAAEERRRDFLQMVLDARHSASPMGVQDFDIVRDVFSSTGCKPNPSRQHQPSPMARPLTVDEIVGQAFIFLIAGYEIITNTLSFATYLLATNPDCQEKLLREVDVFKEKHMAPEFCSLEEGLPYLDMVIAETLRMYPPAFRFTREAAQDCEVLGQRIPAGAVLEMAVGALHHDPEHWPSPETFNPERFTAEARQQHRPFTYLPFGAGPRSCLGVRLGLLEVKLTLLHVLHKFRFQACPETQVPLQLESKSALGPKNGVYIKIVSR
Nature of the test: TXA2 inhibition test: TXA2 generated from PGH2 with human platelet microsomes, response measured on superfused rabbit aortic strips. It is filed as biochemical. The note with it: inhibition of TXA2 formation; test compound added to human platelet microsomes 5 minutes before mixing with PGH2; rabbit aorta readout; read-out: approximate ED50's (converted).

Description: The compounds of the present invention were tested for TXAz inhibition as follows: • Rabbit aortic strips were superfused in series with Krebs solution. Thromboxane Az (TXA2) was generated by mixing prostaglandin H2 (PGH2) with human platelet microsomes (HPM).
Potential inhibitors were tested by comparing the response of the rabbit aorta to the amount of TXAz produced by mixing PGH2 and HPM without the test compound in the reaction medium and then the amount of TXAz produced when the test compound was added to the HPM 5 minutes before the HPM was mixed with PGH2.

Regarding `O=C(O)c1cc(CNc2cccnc2)ccc1O`, the IC50 is about 37.6 nM.
